In brackets after ≈: the same amount, converted by molar mass. Positions of bridges follow the written chain, without caps; N, C: chain ends. Residues, ends and D or L forms follow the SMILES beside them.
Assays:
Assay type in all cases: cell-based
[1] = test system: MRSA (methicillin resistant Staphylococcus aureus); assay: Modified NCCLS minimum inhibitory concentration (MIC) assay; conditions: Table 4
Source text: (§1) Microorganisms: Escherichia coli ML-35p and vancomycin-resistant Enterococcus faecium (VRE) were obtained from Dr. Robert Lehrer (UCLA, see also, Lehrer et al., 1988, J. Immunol. Methods 108:153) and Dr. Gary Schoolnik (Stanford), respectively. Pseudomonas aeruginosa (ATCC 9027), Candida albicans (ATCC 1023), and methicillin resistant Staphylococcus aureus (ATCC 33591) were obtained from the American Type Culture Collection, Rockville, Md.
(§2) 8.3 Modified NCCLS Minimum Inhibitory Concentration (MIC) Assay
(§3) The National Committee for Clinical Standards (NCCLS) requires that test compounds be prepared as stock solutions in Meuller-Hinton Broth ("MHB") at 512 μg/mL. The stock solutions are serially diluted (two-fold) in medium and each serial dilution added 1:1 to medium containing 1×10^6 CFU/mL bacteria (National Committee on Clinical Laboratory Standards, December 1994, "Performance Standards for Antimicrobial Susceptibility Testing," NCCLS Document M100-S5 Vol. 14, No. 16; Methods for Dilution Antimicrobial Susceptibility Test for Bacteria that Grow Aerobically, 3d Ed., Approved Standard M7-A3, National Committee for Clinical Standards, Villanova, Pa.).
(§4) Thus, following the NCCLS protocol would result in serial two-fold dilutions containing less peptide than calculated, yielding erroneously high MIC values.
(§5) To overcome this problem, the following modified NCCLS assay is the preferred method for determining MICs of the cyclic peptides of the invention.
(§6) Preparation of MIC assay plates:
(§7) 1. Prepare a fresh overnight culture of test organism in Meuller-Hinton broth (MHB; Becton-Dickinson, Cockysville, Md., BB2 #11443).
(§8) 2. Dilute the culture to approximately 4×10^5 CFUs/mL with fresh MHB and dispense 100 μL aliquots into each well of a sterile 96-well microtiter plate.
(§9) 3. From the peptide stock solution, prepare serial two-fold dilutions (from 1280 μg/mL to 0.625 μg/mL) using acetic acid (0.01%) as a diluent, or, for peptide concentrations lower than 50 μg/mL, sodium acetate (10 mM, pH 5) containing Human Serum Albumin (HSA; 0.1% w/v) as a diluent.
(§10) 4. Dispense triplicate aliquots (11 μL) of each serial dilution into the wells of the microtiter plate.
(§11) 5. Incubate the plate for 16-18 hours, without aeration, at 37° C. (bacteria) or 30° C. (yeast).
(§12) 6. Examine the plates and evaluate each well for turbidity (cell growth). Often, MRSA will settle out and form a pellet at the bottom of the well. MRSA can be evaluated by placing the microtiter plate on a stand and examining the bottom of the well using a tilted mirror.
(§13) 7. The minimum inhibitory concentration (MIC) is defined as the lowest peptide concentration that inhibits all visible growth. If the MIC values for each of the triplicate samples differ, the MIC is obtained by averaging the results of the three samples. […]

Pseudomonas aeruginosa = assay: as above; conditions: Table 4; Psa is Pseudomonas aeruginosa
Source text: as §1, §2, §3, §4, §5, §6, §7, §8, §9, §10, §11, §12, §13

[2] = test system: MRSA (methicillin resistant Staphylococcus aureus); assay: Kinetic bactericidal assay; conditions: 2 μg/mL peptide, from an initial value of 3.3 × 10^5 CFUs
Source text: as §1
8.4 Kinetic Bactericidal Assay
The following assay is used to determine the rate at which a cyclic peptide kills a target microorganism, as well as to determine if a cyclic peptide is bactericidal or bacteriostatic.
1. Dispense 200 μL of log-phase cells in LTM (4×10^5 CFUs/mL) into each well of a 96-well microtiter plate solution.
2. At time T=0 minutes, add 22 μL of 1280 μg/mL peptide to well A1 and mix by triturating 3 times.
3. Wait 30 seconds and add 22 μL of a second concentration of peptide the to the next well (A2) and mix by triturating 3 times.
4. Repeat the process, staggering each peptide addition by 30 seconds, until all concentrations of peptide have been added. Typically, 4-fold serial dilutions of stock peptide (i.e., 1280, 320, 80, 20 and 5 μg/mL peptide diluted 1:10 into each well) produces good comparative kill curves. Add 22 μL of 0.01% acetic acid to one well as a control.
5. At time T=15 minutes, mix well A1 by triturating 3 times and transfer 20 μL to an empty sterile petri dish (100 mm×15 mm).
6. Quickly add 20 mL of tempered (50° C.) TSA and gently swirl plate to mix.
7. Repeat steps 5-6 until all peptide concentrations have been plated.
8. For the control well, dilute the sample 1:100 with LTM and plate 50 μL of the dilution to obtain an accurate determinations of CFUs.
9. After the agar has solidified, invert the plates and incubate at 37° C. (bacteria) 30° C. (yeast) for 18-24 hours.
10. Repeat steps 5-9 for all peptide concentrations and control samples at times T=30, 60, 120, and 240 minutes.
11. Count the number of CFUs per plate and estimate the reduction in CFUs for each peptide concentration. In order to assess an effect using this assay, the peptide must reduce the CFUs by at least one log (i.e., at least 800 CFUs per plate). Although such numbers are higher than recommended for accuracy (30-300 CFUs/plate), log-order changes in recoverable CFUs indicate significant bacteriocidal efficacy.
12. To obtain comparative kill curves, plot the log of fractional survival versus peptide concentration.

Compound	MIC Values MRSA [1]	MIC Values Psa (Pseudomonas aeruginosa)	MRSA Kill Kinetics 15 min [2]	MRSA Kill Kinetics 120 min [2]
RLCYCRRRFCVCVV [RLCYCRRRFCVCVV.dagger.]	2 µg/mL	4 µg/mL		
WLCYCRRRFCVCVGR [WLCYCRRRFCVCVGR.dagger.]			1.79 log reduction	2.26 log reduction
WLCYCRRRFCVCVGR	32 µg/mL	32 µg/mL	< 0.46 log reduction	< 0.46 log reduction
CC(C)C[C@@H]1NC(=O)[C@H](CCCNC(=N)N)NC(=O)CNC(=O)CNC(=O)[C@H](CCCNC(=N)N)NC(=O)[C@H](CCCNC(=N)N)NC(=O)CNC(=O)[C@H](C(C)C)NC(=O)[C@@H]2CSSC[C@H](NC1=O)C(=O)N[C@@H](Cc1ccc(O)cc1)C(=O)N[C@H]1CSSC[C@H](NC(=O)[C@H](Cc3ccccc3)NC(=O)[C@H](CCCNC(=N)N)NC(=O)[C@H](CCCNC(=N)N)NC(=O)[C@H](CCCNC(=N)N)NC1=O)C(=O)N[C@@H](C(C)C)C(=O)N2 [cyclo(CYCRRRFCVCVGRRGGRL)] (cyclo(GGRLCYCRRRFCVCVGRR); disulfide 5-14, 7-12)	5.33 µg/mL (≈ 2.49 µM)	8 µg/mL (≈ 3.74 µM)	1.2 log reduction	1.17 log reduction
WLCYCRRRFCVCV	32 µg/mL	13 µg/mL		
CC(C)[C@@H]1NC(=O)[C@@H]2CSSC[C@H](NC(=O)[C@H](Cc3ccc(O)cc3)NC(=O)[C@H](Cc3c[nH]c4ccccc34)NC1=O)C(=O)N[C@@H](Cc1ccc(O)cc1)C(=O)N[C@H]1CSSC[C@H](NC(=O)[C@H](Cc3ccccc3)NC(=O)[C@H](CCCNC(=N)N)NC(=O)[C@H](CCCNC(=N)N)NC(=O)[C@H](CCCNC(=N)N)NC1=O)C(=O)N[C@@H](C(C)C)C(=O)N2 [cyco(CYCRRRFCVCVWY), cyclo(CYCRRRFCVCVWY)] (cyclo(CRRRFCVCVWYCY); disulfide 1-6, 8-12)	8 µg/mL (≈ 4.61 µM)	32 µg/mL (≈ 18.4 µM)		
WLCYCRRRFCVCV [WLCYCRRRFCVCV.dagger.]	3.33 µg/mL	> 32 µg/mL	2.12 log reduction	2.89 log reduction
RGGRLCYCRRRFCVCVGR	4 µg/mL	0.5 µg/mL		
CC(C)C[C@@H]1NC(=O)[C@H](Cc2c[nH]c3ccccc23)NC(=O)[C@H](C(C)C)NC(=O)[C@@H]2CSSC[C@H](NC1=O)C(=O)N[C@@H](Cc1ccc(O)cc1)C(=O)N[C@H]1CSSC[C@H](NC(=O)[C@H](Cc3ccccc3)NC(=O)[C@H](CCCNC(=N)N)NC(=O)[C@H](CCCNC(=N)N)NC(=O)[C@H](CCCNC(=N)N)NC1=O)C(=O)N[C@@H](C(C)C)C(=O)N2 [cyclo(CYCRRRFCVCVWL)] (cyclo(CRRRFCVCVWLCY); disulfide 1-6, 8-12)	4 µg/mL (≈ 2.37 µM)	> 32 µg/mL	2.65 log reduction	2.18 log reduction
WYCYCRRRFCVCV	43 µg/mL	32 µg/mL		
CC(C)C[C@@H]1NC(=O)[C@H](CCCNC(=N)N)NC(=O)[C@H](C(C)C)NC(=O)[C@@H]2CSSC[C@H](NC1=O)C(=O)N[C@@H](Cc1ccc(O)cc1)C(=O)N[C@H]1CSSC[C@H](NC(=O)[C@H](Cc3ccccc3)NC(=O)[C@H](CCCNC(=N)N)NC(=O)[C@H](CCCNC(=N)N)NC(=O)[C@H](CCCNC(=N)N)NC1=O)C(=O)N[C@@H](C(C)C)C(=O)N2 [cyclo(CYCRRRFCVCVRL)] (cyclo(CRRRFCVCVRLCY); disulfide 1-6, 8-12)	16 µg/mL (≈ 9.67 µM)	2.67 µg/mL (≈ 1.61 µM)		
RLCYCRRRFCVCV	10.7 µg/mL	2 µg/mL		

Source: patent US5916872A, “Cyclic peptides having broad spectrum antimicrobial activity” (IntraBiotics Pharmaceuticals, Inc., priority 1996, dated 1999)
